Source: patent US12172995B2, “Substituted indole and indazole compounds” (BRISTOL-MYERS SQUIBB COMPANY, priority 2018, dated 2024)

How the values were obtained:
Format in all cases: cell-based
[1] = target: T1, human TLR9 (Homo sapiens, UniProt Q9NR96); assay: TLR9 inhibition reporter assay (HEK-Blue SEAP); details: HEK-Blue cells overexpressing human TLR9, stimulated with ODN2006 5 nM, 22 hour incubation
T1 construct: host or cells: HEK-Blue cells
T1 sequence (Q9NR96 26-1032): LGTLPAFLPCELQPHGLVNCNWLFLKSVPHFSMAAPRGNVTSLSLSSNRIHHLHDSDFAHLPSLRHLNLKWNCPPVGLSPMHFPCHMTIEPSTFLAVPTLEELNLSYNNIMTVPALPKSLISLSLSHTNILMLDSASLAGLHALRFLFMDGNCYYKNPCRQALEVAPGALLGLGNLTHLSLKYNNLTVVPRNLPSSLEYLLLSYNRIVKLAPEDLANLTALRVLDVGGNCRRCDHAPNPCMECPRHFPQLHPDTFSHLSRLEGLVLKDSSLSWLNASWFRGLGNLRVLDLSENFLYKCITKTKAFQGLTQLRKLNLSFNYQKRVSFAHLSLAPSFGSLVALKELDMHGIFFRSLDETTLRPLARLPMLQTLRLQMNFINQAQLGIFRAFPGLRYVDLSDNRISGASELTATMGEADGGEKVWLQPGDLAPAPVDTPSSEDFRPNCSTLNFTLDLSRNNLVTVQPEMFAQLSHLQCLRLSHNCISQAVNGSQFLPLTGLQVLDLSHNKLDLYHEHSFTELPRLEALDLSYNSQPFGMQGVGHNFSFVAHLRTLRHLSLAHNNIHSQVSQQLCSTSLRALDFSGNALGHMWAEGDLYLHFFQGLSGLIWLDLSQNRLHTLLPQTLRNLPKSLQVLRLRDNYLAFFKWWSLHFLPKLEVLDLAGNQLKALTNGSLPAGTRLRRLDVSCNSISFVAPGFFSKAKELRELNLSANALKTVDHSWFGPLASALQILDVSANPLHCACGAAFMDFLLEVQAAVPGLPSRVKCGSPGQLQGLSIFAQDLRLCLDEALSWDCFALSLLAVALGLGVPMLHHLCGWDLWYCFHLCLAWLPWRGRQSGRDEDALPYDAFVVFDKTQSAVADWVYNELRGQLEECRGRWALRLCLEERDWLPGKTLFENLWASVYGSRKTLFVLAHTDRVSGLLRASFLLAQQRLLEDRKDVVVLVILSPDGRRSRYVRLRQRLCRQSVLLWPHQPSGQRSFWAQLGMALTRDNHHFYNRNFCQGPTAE
Experimental: (§1) TLR7/8/9 Inhibition Reporter Assays
(§2) HEK-Blue™-cells (Invivogen) overexpressing human TLR7, TLR8 or TLR9 receptors were used for screening inhibitors of these receptors using an inducible SEAP (secreted embryonic alkaline phosphatase) reporter gene under the control of the IFN-β minimal promoter fused to five NF-κB and AP-1-binding sites. Briefly, cells are seeded into Greiner 384 well plates (15000 cells per well for TLR7, 20,000 for TLR8 and 25,000 for TLR9) and then treated with test compounds in DMSO to yield a final dose response concentration range of 0.05 nM to 50 μM. After a 30 minute compound pre-treatment at room temperature, the cells are then stimulated with a TLR7 ligand (gardiquimod at a final concentration of 7.5 μM), TLR8 ligand (R848 at a final concentration of 15.9 μM) or TLR9 ligand (ODN2006 at a final concentration of 5 nM) to activate NF-κB and AP-1 which induce the production of SEAP. After a 22 hour incubation at 37° C., 5% CO2, SEAP levels are determined with the addition of HEK-Blue™ Detection reagent (Invivogen), a cell culture medium that allows for detection of SEAP, according to manufacturer's specifications. The percent inhibition is determined as the % reduction in the HEK-Blue signal present in wells treated with agonist plus DMSO alone compared to wells treated with a known inhibitor.

[2] = target: T2, human TLR8 (Homo sapiens, UniProt Q9NR97); assay: TLR8 inhibition reporter assay (HEK-Blue SEAP); details: HEK-Blue cells overexpressing human TLR8, stimulated with R848 15.9 μM, 22 hour incubation
T2 construct: host or cells: HEK-Blue cells
T2 sequence (Q9NR97 27-1041): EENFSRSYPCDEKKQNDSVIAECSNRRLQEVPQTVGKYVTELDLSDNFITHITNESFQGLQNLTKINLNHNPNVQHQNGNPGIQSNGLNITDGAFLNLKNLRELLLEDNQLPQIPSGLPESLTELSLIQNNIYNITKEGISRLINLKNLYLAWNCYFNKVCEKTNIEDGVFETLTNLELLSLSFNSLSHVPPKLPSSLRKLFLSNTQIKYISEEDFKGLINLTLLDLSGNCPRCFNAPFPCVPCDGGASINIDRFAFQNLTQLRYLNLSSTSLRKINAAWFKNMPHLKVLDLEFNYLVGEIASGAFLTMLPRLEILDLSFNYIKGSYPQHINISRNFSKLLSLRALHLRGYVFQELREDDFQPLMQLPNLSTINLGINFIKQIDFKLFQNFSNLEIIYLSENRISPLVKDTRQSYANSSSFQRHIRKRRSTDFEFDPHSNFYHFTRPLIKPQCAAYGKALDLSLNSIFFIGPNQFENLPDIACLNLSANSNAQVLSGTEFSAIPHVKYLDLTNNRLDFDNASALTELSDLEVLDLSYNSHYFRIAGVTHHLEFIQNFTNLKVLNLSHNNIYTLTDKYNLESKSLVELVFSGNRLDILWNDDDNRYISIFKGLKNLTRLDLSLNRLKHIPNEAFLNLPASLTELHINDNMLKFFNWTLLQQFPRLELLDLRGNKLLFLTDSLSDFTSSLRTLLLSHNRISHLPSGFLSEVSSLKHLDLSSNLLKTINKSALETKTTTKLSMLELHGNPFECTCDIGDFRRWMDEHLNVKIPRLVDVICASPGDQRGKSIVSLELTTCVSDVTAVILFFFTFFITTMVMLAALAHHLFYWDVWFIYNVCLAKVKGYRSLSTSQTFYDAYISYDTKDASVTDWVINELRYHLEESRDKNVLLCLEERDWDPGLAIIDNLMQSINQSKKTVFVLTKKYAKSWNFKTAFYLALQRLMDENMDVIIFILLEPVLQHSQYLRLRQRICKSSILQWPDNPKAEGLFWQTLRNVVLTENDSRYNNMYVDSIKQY
Experimental: as §1, §2

[3] = target: T3, human TLR7 (Homo sapiens, UniProt Q9NYK1); assay: TLR7 inhibition reporter assay (HEK-Blue SEAP); details: HEK-Blue cells overexpressing human TLR7, stimulated with gardiquimod 7.5 μM, 22 hour incubation
T3 construct: host or cells: HEK-Blue cells
T3 sequence (Q9NYK1 27-1049): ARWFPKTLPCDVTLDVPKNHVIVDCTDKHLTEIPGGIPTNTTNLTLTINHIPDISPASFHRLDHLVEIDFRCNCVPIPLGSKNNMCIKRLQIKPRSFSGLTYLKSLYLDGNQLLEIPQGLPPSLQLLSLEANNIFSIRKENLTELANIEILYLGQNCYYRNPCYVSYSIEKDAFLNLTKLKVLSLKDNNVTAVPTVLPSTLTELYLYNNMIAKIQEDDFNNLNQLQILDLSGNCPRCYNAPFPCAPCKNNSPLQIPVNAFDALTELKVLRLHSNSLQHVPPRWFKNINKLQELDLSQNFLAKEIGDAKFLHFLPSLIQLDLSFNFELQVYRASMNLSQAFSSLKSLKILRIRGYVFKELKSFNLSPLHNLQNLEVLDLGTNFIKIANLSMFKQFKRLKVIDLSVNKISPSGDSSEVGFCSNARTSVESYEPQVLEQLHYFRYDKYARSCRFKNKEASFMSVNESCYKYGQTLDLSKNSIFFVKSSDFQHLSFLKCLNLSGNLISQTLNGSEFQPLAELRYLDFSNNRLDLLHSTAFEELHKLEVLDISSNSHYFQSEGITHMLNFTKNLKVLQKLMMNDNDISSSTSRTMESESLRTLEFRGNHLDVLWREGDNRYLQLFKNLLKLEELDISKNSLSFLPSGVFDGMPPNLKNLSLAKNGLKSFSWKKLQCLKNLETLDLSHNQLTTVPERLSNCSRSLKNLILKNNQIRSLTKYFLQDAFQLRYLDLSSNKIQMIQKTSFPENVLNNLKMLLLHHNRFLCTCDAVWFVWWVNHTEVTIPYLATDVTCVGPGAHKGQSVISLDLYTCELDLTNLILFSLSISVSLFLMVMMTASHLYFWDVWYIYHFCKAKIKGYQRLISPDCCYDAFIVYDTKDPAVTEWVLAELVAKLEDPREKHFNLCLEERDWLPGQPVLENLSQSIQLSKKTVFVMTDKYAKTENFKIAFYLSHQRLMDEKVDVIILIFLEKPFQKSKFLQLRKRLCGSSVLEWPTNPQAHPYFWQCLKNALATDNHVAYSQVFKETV
Experimental: as §1, §2

Row | IC50 [1] [µM] | IC50 [2] [nM] | IC50 [3] [nM] | SMILES
1 | 4.48 | 1.3 | 21.6 | Cc1cc2c(C3CC(N(C)C)C3)n[nH]c2cc1-c1cc(C)c2ncnn2c1 (single isomer, unassigned) [Example 7, N,N-dimethyl-3-(5-methyl-6-(8-methyl-[1,2,4]triazolo[1,5-a]pyridin-6-yl)-1H-indazol-3-yl)cyclobutan-1-amine]
2 | 3.43 | 115 | 80.6 | Cc1cc(-c2ccc3c(C4CCC(N(C)C)CC4)c[nH]c3c2)cn2ncnc12 (single isomer, unassigned) [Example 14, N,N-dimethyl-4-(6-(8-methyl-[1,2,4]triazolo[1,5-a]pyridin-6-yl)-1H-indol-3-yl)cyclohexan-1-amine]
3 | 1.13 | 25.9 | 29.4 | Cc1cc(-c2ccc3c(C4CCC(N(C)C)CC4)c[nH]c3c2)cn2ncnc12 (single isomer, unassigned) [Example 15, N,N-dimethyl-4-(6-(8-methyl-[1,2,4]triazolo[1,5-a]pyridin-6-yl)-1H-indol-3-yl) cyclohexan-1-amine]
4 | 4.41 | 0.4 | 12.4 | Cc1cc2c(C3CCC(NCC(=O)N(C)C)CC3)n[nH]c2cc1-c1cc(C)c2ncnn2c1 (single isomer, unassigned) [Example 28, N,N-dimethyl-2-((4-(5-methyl-6-(8-methyl-[1,2,4]triazolo[1,5-a]pyridin-6-yl)-1H-indazol-3-yl)cyclohexyl)amino)acetamide]
5 | 6.34 | 0.9 | 39 | Cc1cc2c(C3CCC(NCC(=O)N(C)C)CC3)n[nH]c2cc1-c1cc(C)c2ncnn2c1 (single isomer, unassigned) [Example 29, N,N-dimethyl-2-((4-(5-methyl-6-(8-methyl-[1,2,4]triazolo[1,5-a]pyridin-6-yl)-1H-indazol-3-yl)cyclohexyl)amino)acetamide]
6 | 4.44 | 0.3 | 18.3 | Cc1cc2c(C3CCC(N(C)C4COC4)CC3)n[nH]c2cc1-c1cc(C)c2ncnn2c1 (single isomer, unassigned) [Example 32, N-methyl-N-(4-(5-methyl-6-(8-methyl-[1,2,4]triazolo[1,5-a]pyridin-6-yl)-1H-indazol-3-yl)cyclohexyl)oxetan-3-amine]
7 | 9.01 | 3 | 96.7 | Cc1cc2c(C3CCC(N(C)C4COC4)CC3)n[nH]c2cc1-c1cc(C)c2ncnn2c1 (single isomer, unassigned) [Example 33, N-methyl-N-(4-(5-methyl-6-(8-methyl-[1,2,4]triazolo[1,5-a]pyridin-6-yl)-1H-indazol-3-yl)cyclohexyl)oxetan-3-amine]
8 | 3.95 | 0.2 | 8.1 | Cc1cc2c(C3CCC(NC4COC4)CC3)n[nH]c2cc1-c1cc(C)c2ncnn2c1 (single isomer, unassigned) [Example 34, N-(4-(5-methyl-6-(8-methyl-[1,2,4]triazolo[1,5-a]pyridin-6-yl)-1H-indazol-3-yl)cyclohexyl)oxetan-3-amine]
9 | 3.1 | 0.8 | 29.7 | Cc1cc2c(C3CCC(NC4COC4)CC3)n[nH]c2cc1-c1cc(C)c2ncnn2c1 (single isomer, unassigned) [Example 35, N-(4-(5-methyl-6-(8-methyl-[1,2,4]triazolo[1,5-a]pyridin-6-yl)-1H-indazol-3-yl)cyclohexyl)oxetan-3-amine]
10 | ≥ 50 | 0.1 | 6 | Cc1cc2c(C3CCC(NC(C)C)CC3)n[nH]c2cc1-c1cc(C)c2ncnn2c1 (single isomer, unassigned) [Example 38, N-isopropyl-4-(5-methyl-6-(8-methyl-[1,2,4]triazolo[1,5-a]pyridin-6-yl)-1H-indazol-3-yl)cyclohexan-1-amine]
11 | 4.12 | 0.9 | 22.6 | Cc1cc2c(C3CCC(NC(C)C)CC3)n[nH]c2cc1-c1cc(C)c2ncnn2c1 (single isomer, unassigned) [Example 39, N-isopropyl-4-(5-methyl-6-(8-methyl-[1,2,4]triazolo[1,5-a]pyridin-6-yl)-1H-indazol-3-yl) cyclohexan-1-amine]
